Data on 1 compound can be found in patent publication US20230096663A1, “FARNESOID X RECEPTOR MODULATING COMPOUNDS AND METHODS OF USING THE SAME” (Inorbit Therapeutics AB, priority 2020, published 2023).

Molecules are shown by their SMILES.

For assay [1], the system named is FXR related genes (BSEP, SHP) in primary human hepatocytes. Description: Gene expression in human primary hepatocytes (BSEP, SHP). It counts as cell-based. The settings on record: 24 hours incubation. The procedure:
The test compound was dissolved in buffer to give a 10 mM stock solution. The compound was serially diluted to the desired concentrations and then incubated with human primary hepatocytes for 24 hours at 37° C. in a CO2 incubator. After incubation, the media was removed and the RNA harvested using the Trizol-CHCl3 method and quantified using Nano drop. The RNA was then Reverse Transcribed to cDNA using a superscript vilo cDNA synthesis kit. The cDNA with respective Taqman primers, master mix are then amplified using quantitative RT-PCR system. […] The compounds of examples 2 and 3 upregulate FXR related and disease relevant genes on incubation with primary human hepatocytes. […] It is a uni-directional, ATP-dependent efflux transporter that plays an important role in the elimination of bile salts from the hepatocyte into the bile canaliculi for export into the gastrointestinal tract. FXR also induces the expression of small heterodimer partner (SHP) which controls a complex set of genes in multiple metabolic pathways. It reduces the expression of CYP7A1, a liver-specific enzyme that catalyzes the first and rate-limiting step in one of the two pathways for bile acid biosynthesis.

For the next assay, the system named is STAM model NASH mice. Description: In-vivo efficacy in STAM model of non-alcoholic steatohepatitis. The note with it: oral once daily for three weeks, 0.3, 1 or 3 mg/kg. The procedure:
NASH was induced in male mice by a single subcutaneous injection of 200 μg streptozotocin (STZ, Sigma-Aldrich, USA) solution 2 days after birth and feeding with high fat diet (HFD, 57 kcal % fat, Cat #HFD32, CLEA Japan, Inc., Japan) after 4 weeks of age. NASH model mice were randomized into groups of 8 mice at 6 weeks of age based on their body weight the day before the start of treatment. The compound of Example 2 was then administered orally in a volume of 10 ml/kg at dose levels 0.3 mg/kg, 1 mg/kg and 3 mg/kg once daily for 3 weeks. […] NAFLD Activity score (NAS) was calculated according to the criteria of Kleiner (Kleiner D E. et al., Hepatology, 2005; 41:1313). […] For quantitative analysis of fibrosis area, bright field images of Sirius red-stained sections were captured around the central vein using a digital camera (DFC295; Leica, Germany) at 200-fold magnification, and the positive areas in 5 fields/section were measured using ImageJ software (National Institute of Health, USA). […] The score can be used to quantify changes in NAFLD during disease progression and on administration of potential therapeutics. In order to quantify the degree of fibrosis Sirius red stained liver sections were used to visualise and study collagen distribution.

With `O=S([O-])c1cc(F)c2nc(N3[C@@H]4CC[C@H]3C[C@@H](OCc3c(-c5ccccc5OC(F)(F)F)noc3C3CC3)C4)sc2c1.[Na+]` [Example 2, Sodium 2-(3-((5-cyclopropyl-3-(2-(trifluoromethoxy)phenyl)isoxazol-4-yl)methoxy)-8-azabicyclo[3.2.1]octan-8-yl)-4-fluorobenzo[d]thiazole-6-sulfinate], the “Expression of FXR related and disease relevant genes (BSEP, SHP)” value in assay [1] is listed as “upregulate”. Also, in the assay on STAM model NASH mice, the “Fibrosis area (Sirius red positive area)” value is listed as “Significant reductions” and the “NAFLD Activity score (NAS)” value is reported as “Significant reductions”.
